Experimental data: patent publication US4657865A, “Pullulanase-like enzyme, method for preparation thereof, and method for saccharification of starch therewith” (Agency of Industrial Science & Technology, priority 1985, dated 1987)

Tests used:
[1] = system: pullulanase-like enzyme; test: Inhibition of the pullulanase activity by metal salts; type: biochemical, Bacillus subtilis; details: inhibitor concentration 1×10^-3 M
Procedure: (6) Inhibitor: This enzyme undergoes not less than 90% of inhibition by each of HgCl2 and AgNO3 used in a concentration of 1×10^-3 M and about 70% of inhibition by ZnSO4 used in the same concentration.
(10) Procedure for determination of activity: This enzyme is added in a suitable amount to 0.5 ml of a 1% pullulan solution (pH 7.0) obtained by dissolving pullulan in 0.1M phosphate buffer. The mixture is made up to a total volume of 1 ml with water and incubated at 40° C. The amount of this enzyme which is required in producing reducing power equivalent to 1μ mole of glucose after one minute standing under the aforementioned conditions is defined as one unit.

[2] = system: Bacillus subtilis (FERM BP-672) parent strain; test: Growth on culture medium containing Tunicamycin, parent strain; type: cell-based; details: culture medium containing Tunicamycin 25-100 μg/ml
Source text: (§1) The aforementioned pullulanase-like enzyme is produced by a bacterium isolated from soil and identified to be Bacillus subtilis (FERM BP-672). […] It has been designated as Bacillus subtilis TU strain, deposited with Fermentation Research Institute, Agency of Industrial Science & Technology on Oct. 13, 1984 under FERM 7893, and also transferred to the International Deposition based on the Budapest Treaty on Dec. 20, 1984 and designated FERM BP-684.
(§2) A strain of Bacillus subtilis (FERM BP-672) was suspended in distilled water and irradiated with the ultraviolet light (15 W) from its source at a distance of about 30 cm for 5 minutes. Part of the irradiated suspension was placed in a culture medium containing 75 μg of Tunicamycin per ml (containing 1% of polypepton, 1% of soluble starch, 0.3% of K2 HPO4, and 0.1% of MgSO4.7H2 O) and aerobically cultured therein at 30° C. for three days. The grown microorganism was sprayed on a plate culture medium with the same culture medium containing agar and incubated at 30° C. The colonies which grew were preserved on a slant medium of the same composition. In the Tunicamycin-resistant mutants so produced, there was obtained in high frequency a strain of enhanced activity to produce the pullulanase-like enzyme. Bacillus subtilis TU strain (FERM BP-684) was thus obtained.

[3] = system: Bacillus subtilis TU strain; test: Growth on culture medium containing Tunicamycin, TU strain; type: cell-based; details: culture medium containing Tunicamycin 25-100 μg/ml
Source text: as §1, §2

| Compound | inhibition [1] | growth of the parent strain [2] | growth of the TU strain [3] |
| --- | --- | --- | --- |
| O=[N+]([O-])[O-].[Ag+] [AgNO3] | not less than 90% | – | – |
| [Cl][Hg][Cl] [HgCl2] | not less than 90% | – | – |
| O=S(=O)([O-])[O-].[Zn+2] [ZnSO4] | about 70% | – | – |
| Tunicamycin | – | fails to show any growth | grows fairly well |
